Assay results as given in patent US20070196510A1, “Method for treating resistant hypertension” (priority 2006, published 2007).
Entries after “also recorded” stand apart in the source; their conditions may differ.

Test system: patients with resistant hypertension
Assay: Same clinical study: safety and tolerability assessments
Type: in vivo, human
Protocol: Physical examinations, vital sign measurements, clinical chemistry and hematologic laboratory tests, and electrocardiography were performed at the screening visit and periodically throughout the study. Blood samples were obtained at baseline and at weeks 4 and 10 during study drug treatment to monitor liver function. Additional blood samples were drawn from male patients at baseline and week 10 to assess follicle stimulating hormone, inhibin B, luteinizing hormone and testosterone levels. Male fertility was assessed by analysis of semen samples obtained within 2 weeks before baseline and within 2 weeks before week 10. Adverse events were monitored throughout the study.
A nonlinear mixed effect model was used for the analysis of change in blood pressure, with comorbidity status as a covariate. This model used all observed blood pressure measurements with no imputation for missing values. Linear contrast statements were used to test the slope through a given time point to test the effect of the dose administered on that week. Estimates of treatment effect were obtained via least square means. Response rates were compared with logistic regression models at each blood pressure measurement with comorbidity status as a covariate; missing values were imputed with last observation carried forward for these models. Safety summaries include all patients who received ≧1 dose of blinded study medication.

## COc1cc(OC)nc(O[C@H](C(=O)O)C(OC)(c2ccccc2)c2ccccc2)n1 [Darusentan, (+)-(S)-2-[(4,6-dimethoxy-2-pyrimidinyl)oxy]-3-methoxy-3,3-diphenylpropionic acid]
10 to 300 mg once daily for 10 weeks, add-on therapy
  overall tolerability: generally safe and well tolerated
All events mild
  decreases in hematocrit reported as adverse events: 2 patients
  decreases in hemoglobin reported as adverse events: 2 patients
Both groups
  mean concentrations of ALT, AST, and γ-glutamyltransferase: decreased slightly from baseline
Darusentan group, n = 76
  number of serious adverse events reported: Five
  patients reporting serious adverse events: 4 patients
  patients who discontinued the study because of an adverse event: 4 patients
human, in vivo
  cases of severe edema reported: one
  deaths during the course of the study: No patients died
  effects on heart rate or liver enzyme levels: no clinically relevant effects
  intensity of peripheral edema: largely mild to moderate
  patients able to successfully escalate study medication dose to 300 mg/day: 78%
  patients with elevations in ALT or AST >2×ULN: no patients; also recorded: no drug-related serious adverse events or elevations in serum aminotransferase concentrations>2×ULN
  relation of serious adverse events to study medication: None of these events were considered to be related to study medication; also recorded: no drug-related serious adverse events
N = 76
  Treatment-emergent adverse event: Arthralgia, patients %: 3%
  Treatment-emergent adverse event: Arthralgia, patients n: 2
  Treatment-emergent adverse event: Arthritis, patients n: 0
  Treatment-emergent adverse event: Diarrhea, patients %: 1 (1) %
  Treatment-emergent adverse event: Diarrhea, patients n: 1 (1)
  Treatment-emergent adverse event: Dizziness, patients %: 7%
  Treatment-emergent adverse event: Dizziness, patients n: 5
  Treatment-emergent adverse event: Gastroenteritis, patients %: 5%
  Treatment-emergent adverse event: Gastroenteritis, patients n: 4
  Treatment-emergent adverse event: Headache, patients %: 11%
  Treatment-emergent adverse event: Headache, patients n: 8
  Treatment-emergent adverse event: Nasopharyngitis, patients %: 7%
  Treatment-emergent adverse event: Nasopharyngitis, patients n: 5
  Treatment-emergent adverse event: Peripheral edema, patients %: 17%
  Treatment-emergent adverse event: Peripheral edema, patients n: 13
  Treatment-emergent adverse event: Sinusitis, patients %: 8%
  Treatment-emergent adverse event: Sinusitis, patients n: 6
  Treatment-emergent adverse event: Upper respiratory tract infection, patients %: 5%
  Treatment-emergent adverse event: Upper respiratory tract infection, patients n: 4
Vs placebo
  liver function test results: comparable between treatment groups
Week 10, placebo 2.3±1.3
  heart rate, change from baseline: 0.4±0.9 beats per minute
